# Laboratory results from EPA's ToxValDB 9.5.
# Where a name gives a salt, the structure may show the parent alone.
# Test system: Rattus norvegicus
# [1] = subchronic, duration: 13 weeks, oral, gavage, no effects
# [2] = subchronic, duration: 90 days, oral, diet, M/F, no effects
smiles,measurement,setting,value
Cc1ccc(C(C)CC=O)o1 (configuration not stated) [3-(5-Methyl-2-furyl)butanal],NOAEL,"subchronic, duration: 90 days, oral, diet, M/F, Crj:CD, clinical signs",5.9 mg/kg-day
O=C1O[C@H]([C@H](O)CO)C(O)=C1O [Isoascorbic acid],NOAEL,"chronic, duration: 2 years, oral, drinking water, M/F, Fischer 344, body weight",650 mg/kg-day
"CC1=C(S)CCO1 [2-methyl-4,5-dihydrofuran-3-thiol]",NOAEL,"subchronic, duration: 13 weeks, oral, diet, M/F, Wistar, hematological",1.4 mg/kg-day
same,NOEL,"subchronic, duration: 90 days, oral, diet, M/F, Wistar, hematological",1.4 mg/kg-day
O=S([O-])S(=O)(=O)[O-].[Na+].[Na+] [Sodium metabisulfite],NOAEL,"chronic, duration: 2 years, oral, diet, M/F, histopathology: nonneoplastic",72 mg/kg-day
COc1cc(C=O)ccc1O [4-Hydroxy-3-methoxybenzaldehyde],NOAEL,"chronic, duration: 2 years",1000 mg/kg-day
same,NOAEL,[1],400 mg/kg-day
CC(=NC#N)N(C)Cc1ccc(Cl)nc1 [Acetamiprid],NOAEL,"reproduction developmental, duration: 16 days, oral, gavage, F, other",2.5 mg/kg-day
CC(=O)c1ccc2ccccc2c1 [2'-Acetonaphthone],NOAEL,"subchronic, duration: 90 days",33 mg/kg-day
same,NOAEL,[2],33 mg/kg-day
CC(=O)N[C@@H]([C@@H](O)[C@H](O)[C@H](O)CO)[C@@H](O)CC(=O)C(=O)O [Aceneuramic acid],NOAEL,"subchronic, duration: 13 weeks, oral, diet, M/F, Crj:CD, food consumption",493 mg/kg-day
CCOC(=O)CNC(=O)[C@@H]1C[C@H](C)CC[C@H]1C(C)C,NOAEL,"subchronic, duration: 90 days, oral, gavage, M/F, hematological",75 mg/kg-day
OC1OC[C@@H](O)[C@@H](O)[C@H]1O (stereo partly drawn) [D-Ribose],NOAEL,"subchronic, duration: 90 days, oral, diet, M/F, Wistar, body weight",3600 mg/kg-day
"O=c1[nH]sc2ccccc12 [1,2-Benzisothiazolin-3-one]",NOAEL,"subchronic, duration: 90 days, oral, gavage, M/F, Wistar, histopathology: nonneoplastic",10 mg/kg-day
Cn1cc(C(F)(F)F)cc(Cl)c1=O [3-Chloro-1-methyl-5-(trifluoromethyl)pyridin-2-one],LD50,"acute, oral, F, Wistar, mortality",124 mg/kg
OC[C@H]1O[C@H](OC[C@H]2O[C@@H](O)[C@@H](O)[C@@H](O)[C@@H]2O[C@@H]2O[C@H](CO)[C@@H](O)[C@H](O)[C@@H]2O)[C@H](O)[C@@H](O)[C@H]1O [Galactomannan],NOEL,"short-term, duration: 28 days, M/F, Sprague-Dawley, clinical chemistry",230 mg/kg-day
CC=O [Acetaldehyde],NOAEL,"subchronic, duration: 11 weeks, oral, drinking water, other",120 mg/kg-day
O=C1CN(/N=C/c2ccc([N+](=O)[O-])o2)C(=O)N1 [Nitrofurantoin],LEL,"reproduction developmental, oral, reproduction",10 mg/kg-day
O=C1C(c2[nH]c3ccc(S(=O)(=O)[O-])cc3c2O)=Nc2ccc(S(=O)(=O)[O-])cc21.[Na+].[Na+] [C.I. Acid Blue 74],NOAEL,"chronic, duration: 2 years, oral, diet",500 mg/kg-day
same,NOAEL,"chronic, duration: 2 years, oral, diet, growth",500 mg/kg-day
"CC(C)CC1NC(CC(C)C)SC(CC(C)C)S1 (configuration not stated) [2,4,6-Triisobutyl-5,6-dihydro-4H-1,3,5-dithiazine]",NOAEL,"subchronic, duration: 90 days, oral, diet, M, histopathology: nonneoplastic",9.3 mg/kg-day
CC(C=O)=Cc1ccccc1 [2-Methylcinnamic aldehyde],NOAEL,[2],220 mg/kg-day
CCCCOC(=O)CC(CC(=O)OCCCC)(OC(C)=O)C(=O)OCCCC [Acetyl tributyl citrate],NOAEL,"subchronic, duration: 90 days, oral, body weight",100 mg/kg-day
C[C@@H]1O[C@@H](O[C@H]2[C@H](O[C@@H]([C@H](O)[C@@H](O)C=O)[C@H](O)CO)O[C@H](CO)[C@H](O)[C@@H]2O)[C@@H](O)[C@H](O)[C@@H]1O [2'-Fucosyllactose],NOAEL,"subchronic, duration: 90 days, oral, gavage, M/F, Wistar, organ weight",2000 mg/kg-day
Cc1ncc(C[n+]2csc(CCO)c2C)c(N)n1.Cl.[Cl-] [Thiamine hydrochloride],NOAEL,"subchronic, duration: 90 days, oral, diet",36 mg/kg-day
CC(=O)Nc1ccc(S(=O)(=O)[O-])c2cc(S(=O)(=O)[O-])c(N=Nc3ccc(N=Nc4ccc(S(=O)(=O)[O-])cc4)c4ccc(S(=O)(=O)[O-])cc34)c(O)c12.[Na+].[Na+].[Na+].[Na+] [Black PN],NOAEL,"chronic, duration: 2 years, oral, diet, M/F, no effects",500 mg/kg-day
CC(C)[C@@H]1CC[C@@H](C)C[C@H]1C(=O)NCCc1ccccn1 (relative stereo),NOAEL,"subchronic, duration: 90 days, oral, diet, M/F, Sprague-Dawley, histopathology: nonneoplastic",5 mg/kg-day
C1CCNCC1 [Piperidine],NOAEL,"subchronic, duration: 90 days, oral, M/F, Sprague-Dawley, clinical chemistry",5 mg/kg-day
[O]=[Ti]=[O] [Titanium dioxide],NOAEL,"chronic, duration: 103 weeks, oral, diet, M/F, Fischer 344, no effects",2250 mg/kg-day
"CCC1=C(O)C(=O)C(C)O1 (configuration not stated) [3(2H)-Furanone, 5-ethyl-4-hydroxy-2-methyl-]",NOAEL,"chronic, duration: 2 years, M/F, body weight",200 mg/kg-day
CC(C)CCCCCCOC(=O)c1ccccc1C(=O)OCCCCCCC(C)C [Diisononyl phthalate],NOAEL,"chronic, duration: 2 years, M/F, Fischer 344, histopathology: nonneoplastic",15 mg/kg-day
CNC(=O)C(C)(C(C)C)C(C)C [Trimethyl isopropyl butanamide],NOEL,"chronic, duration: 14 weeks, oral, diet, M/F, histopathology: nonneoplastic",5 mg/kg-day
"Cc1sc2nc(=O)[nH]c(N)c2c1C [4-Amino-5,6-dimethylthieno(2,3-d)pyrimidin-2(1H)-one]",NOAEL,"subchronic, duration: 13 weeks, oral, diet, M/F, Sprague-Dawley, no effects",60 mg/kg-day
C=CCc1ccc(OC(C)=O)c(OC)c1 [(2-Methoxy-4-prop-2-enylphenyl) acetate],NOAEL,"subchronic, duration: 90 days, clinical chemistry",300 mg/kg-day
COc1ccc(C=O)cc1OC [Veratraldehyde],NOAEL,[1],400 mg/kg-day
CC1=C(O)C(=O)CO1 [4-Hydroxy-5-methyl-3-furanone],NOAEL,"chronic, duration: 2 years, oral, diet, M/F, Sprague-Dawley, body weight",200 mg/kg-day
C=C(C)[C@@H]1CC=C(C)CC1 [(S)-Limonene],NOAEL,"chronic, duration: 103 weeks, oral, gavage, F, mortality",215 mg/kg-day
